“Also recorded” adds a separate entry of the source. Residues, ends and D or L forms follow the SMILES beside them. *: point of attachment. Cbz = O=C(OCc1ccccc1)*
Assays:
Assay type in all cases: cell-based
MV-4-11 cells = experiment: CellTiter-Glo cell viability, MV-4-11 cells; details: for Loss of cellular viability / toxicity, cotreated with cereblon ligands 8046, 8047 and 8066 vs monomers alone: MV-4-11, 72 hours, 1:1, 10 nM-100 μM each
Procedure: CellTiter-Glo® 2.0 Cell Viability Assay (Promega) was carried out following the manufacturer's recommendations. Cells were seeded at a density of 1000 cells/well in a white 96 well plates (Corning, #3917) in a total volume of 100 μl with respective monomers, combinations of BRD ligands together with E3 ligase ligands or vehicle control treatment. After a 72 h incubation, 100 ul of the CellTiter-Glo® substrate was added per well and luminescence was read on a Spectramax M5 (Molecular Devices). Dose-response curves were generated using Graphpad Prism software.
MV-4-11 cells (5×104) were treated for 24 hours with the sample compounds solubilized in DMSO. The compounds were added at 1 nM-100 μM each. Cellular viability was determined using the CellTiter-Glo® Luminescent Cell Viability Assay (Promega) described above. FIGS. 19-22 depict the CURE-PRO-mediated loss of cellular viability for BRD monomers (JQ1 derivatives comprising of catechol linkers), and CRBN ligand, 8049 (pomalidomide derivatives comprising boronic acid linkers) combined in a 1:1 ratio.
MV-4-11 cells (1×104) were treated for 72 hours with the compounds solubilized in DMSO. Compounds were added at 10 nM-100 μM each. Cellular viability was determined using the CellTiter-Glo® Luminescent Cell Viability Assay (Promega) described above. FIGS. 47-54 depict the CURE-PRO-mediated loss of cellular viability for BRD monomers (JQ1 derivatives comprising of boronic acid linkers), and CRBN ligands, 8046, 8047 and 8066 (pomalidomide derivatives comprising diol linkers) combined in a 1:1 ratio.

BRD4 [1] = biological target: T1, BRD4 (Homo sapiens, UniProt O60885); experiment: CURE-PRO-mediated BRD4 degradation with MDM2 ligands, WES (ProteinSimple), HCT116 cells; design: endogenous in cells; details: for Inhibition of BRD-N25 + 8310 mediated BRD4 degradation by proteasome inhibitor: HCT116, monomers 10 μM each, inhibitor 1 μM pre-incubation
Procedure: (§1) All cell lines were purchased from ATCC or DSMZ and grown at 37° C. with 5% CO2. Human HeLa cells were cultured in complete growth medium (Dulbecco's modified Eagle's medium (DMEM) supplemented with 10% FBS); MCF7 cells were cultured in complete growth medium (Dulbecco's modified Eagle's medium (DMEM) supplemented with 10% FBS and 0.01 mg/ml human recombinant insulin (Sigma Aldrich); Namalwa and MOLM-13 cells were cultured in complete growth medium (RPMI 1640 medium supplemented with 10% FBS); MV-4-11 were cultured in complete growth medium (Iscove's Modified Dulbecco's medium, supplemented with 10% FBS); HCT116 cells were cultured in complete growth medium (McCoy's 5a Medium supplemented with 10% FBS). For cellular degradation of BRD4 studies, cells were seeded in a 12-well plate at 70-80% confluency, allowed to attach overnight, and incubated with the indicated compounds for the indicated time. When indicated, a 15-minute pretreatment with 10 μM pomalidomide, 10 μM VHL298, 10 μM Nutlin3a, 1 μM MG-132 or 1 μM Carfilzomib was performed before the addition of CURE-PROs. For washout studies, after CURE-PRO treatment, media was aspirated and incubated with complete medium for the indicated time before lysis.
(§2) WES Simple analysis was performed on WES system (ProteinSimple-Biotechne) according to the manufacturer's instructions. Total protein concentrations of cell lysates were determined by the Pierce BCA kit (Thermo Fisher). 3 μL of 0.3 μg/μL of the protein lysate was loaded onto a 12- to 230-kDa WES assay plate (ProteinSimple) where 300 nL sample was withdrawn through a capillary, subjected to electrophoretic separation of proteins by size, and followed by the simultaneous, HRP-based detection of proteins using the Anti-Rabbit Detection Module (Proteinsimple: #DM-001). The electropherograms were checked then the automatic peak detection was manually corrected if it was required.
HCT116 cells (3×10^6) were treated for 24 hours with the compounds solubilized in DMSO. Compounds were added at 1 μM-10 μM each. Standardized protein samples were electrophoresed and imaged as described in the WES ProteinSimple section above. FIGS. 59, 60, and 61 depict the concentration-dependence of CURE-PRO-mediated BRD4 degradation using MDM2 ligands.
HCT116 cells (3×10^6) were treated for 24 hours with the compounds solubilized in DMSO. Compounds were added at 1 μM-10 μM each. Standardized protein samples were electrophoresed and imaged as described in the WES ProteinSimple section above. FIGS. 62 and 63 depict the concentration-dependence of CURE-PRO-mediated BRD4 degradation using MDM2 ligands.
HCT116 cells (3×10^6) were treated for 24 hours with the compounds solubilized in DMSO. CURE-PRO monomers were added at 10 μM each and the proteasomal inhibitors at 1 μM. Standardized protein samples were electrophoresed and imaged as described in the WES ProteinSimple section above. FIG. 68 depicts the dependence of the proteasome for CURE-PRO-mediated BRD4 degradation.

BRD4 [2] = biological target: T1, BRD4; experiment: Summary of BRD4 degradation by CURE-PRO pairs, estimated from Western Blot or WES (Proteinsimple); design: endogenous in cells; details: Table 1
Source text: A black check mark indicates efficacy of 30% to 70% or higher protein degradation.

BRD4 [3] = biological target: T1, BRD4; experiment: CURE-PRO-mediated BRD4 degradation, Western blot, HeLa cells; design: endogenous in cells; host or cells: HeLa; details: 24 h, Western blot
Summary of the method: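 HeLa cells treated 24 h with compounds in DMSO (1-10 μM, 10 μM or 100 μM each; paired monomers combined 1:1), optional 15-min pretreatment with pomalidomide, VHL298, Nutlin3a (10 μM) or MG-132/carfilzomib (1 μM). RIPA lysates, 10-20 μg protein immunoblotted for BRD4 with β-actin, ECL detection.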

BRD4 [4] = biological target: T1, BRD4; experiment: CURE-PRO-mediated BRD4 degradation with VHL ligands, WES (ProteinSimple), MCF7 cells; design: endogenous in cells; details: for Inhibition of BRD-E2 + 8305 mediated BRD4 degradation by proteasome inhibitor / Inhibition of BRD-E20 + 8305 mediated BRD4 degradation by proteasome inhibitor: MCF7, monomers 10 μM each, inhibitor 1 μM pre-incubation
Procedure: as §1, §2
MCF7 cells (3×10^6) were treated for 4-24 hours continually (FIG. 72), or treated for 4h, washed and incubated for a further 4-24 h with the compounds solubilized in DMSO. Compounds were added at 10 μM each. Cells were washed, lysed, and clarified by centrifugation. The total protein concentration was quantified by the BCA method (ThermoFisher Sciences). Standardized protein samples were electrophoresed and imaged as described in the WES Proteinsimple section above. FIG. 69 depicts the CURE-PRO-mediated BRD4 degradation for the BRD-E50 monomer, and VHL ligand, 8305.
MCF7 cells (3×10^6) were treated for 24 hours with the compounds solubilized in DMSO. CURE-PRO monomers were added at 10 μM each and the proteasomal inhibitors at 1 μM. Standardized protein samples were electrophoresed and imaged as described in the WES Proteinsimple section above. FIGS. 73 and 75 depicts the dependence of the proteasome for CURE-PRO-mediated BRD4 degradation.
MCF7 cells (3×10^6) were treated for 24 hours with the compounds solubilized in DMSO. CURE-PRO monomers were added at 10 μM. FIG. 74 depicts the CURE-PRO-mediated BRD4 degradation for the BRD-E50 monomer, and VHL ligand, 8305 combined in a 1:1 ratio after 24 h.

COc1ccc2c(c1)C(c1ccc(Cl)cc1)=N[C@@H](CC(=O)Nc1cccc(B(O)O)c1)c1nnc(C)n1-2 [BRD-E73, (3-(2-((4S)-6-(4-chlorophenyl)-8-methoxy-1-methyl-4H-benzo[f][1,2,4]triazolo[4,3-a][1,4]diazepin-4-yl)acetamido)phenyl)boronic acid]
Loss of cellular viability / toxicity, cotreated with cereblon ligands 8046, 8047 and 8066 vs monomers alone (MV-4-11 cells): reduced viability; also recorded: increased toxicity

CCNC(=O)C[C@@H]1N=C(c2ccc(Cl)cc2)c2cc(Sc3ccc(B(O)O)cc3)ccc2-n2c(C)nnc21 [BRD-E75, (4-(((4S)-6-(4-chlorophenyl)-4-(2-(ethylamino)-2-oxoethyl)-1-methyl-4H-benzo[f][1,2,4]triazolo[4,3-a][1,4]diazepin-8-yl)thio)phenyl)boronic acid]
Loss of cellular viability / toxicity, cotreated with cereblon ligands 8046, 8047 and 8066 vs monomers alone (MV-4-11 cells): reduced viability; also recorded: increased toxicity

CCNC(=O)C[C@@H]1N=C(c2ccc(Cl)cc2)c2cc(OCCCCCCNC(=O)c3ccc(B(O)O)cc3)ccc2-n2c(C)nnc21 [BRD-E79, (4-((6-(((4S)-6-(4-chlorophenyl)-4-(2-(ethylamino)-2-oxoethyl)-1-methyl-4H-benzo[f][1,2,4]triazolo[4,3-a][1,4]diazepin-8-yl)oxy)hexyl)carbamoyl)phenyl)boronic acid]
BRD4 degradation, in combination with MDM2 ligand 8313 (BRD4 [1]; HCT116, 24 h, 1:1 with 8313, 1-10 μM each, WES): caused BRD4 protein degradation at 1 and 10 μM; also recorded: Degradation of BRD4 is observed
BRD4 degradation, in combination with MDM2 ligand 8314 (BRD4 [1]; HCT116, 24 h, 1:1 with 8314, 1-10 μM each, WES): no protein loss was observed
Degradation of BRD4 in combination with CRBN ligand [drawing 371] (BRD4 [2]; CRBN ligand, second drawing (8047)): ✓ (A black check mark indicates efficacy of 30% to 70% or higher protein degradation)
Degradation of BRD4 in combination with CRBN ligand [drawing 372] (BRD4 [2]; CRBN ligand, third drawing (8066)): ✓ (A black check mark indicates efficacy of 30% to 70% or higher protein degradation)
Degradation of BRD4 in combination with CRBN ligand [drawing 370] (BRD4 [2]; aromatic 1,2-diol- or hindered cis-1,2-diol-containing CRBN ligand, first drawing (8046)): ✓ (A black check mark indicates efficacy of 30% to 70% or higher protein degradation)
BRD4 degradation, co-treatment with CRBN ligand 8046 (BRD4 [3]; 1:1 with 8046, 10 μM each): causes degradation of BRD4; also recorded: Degradation is noted
BRD4 degradation, co-treatment with CRBN ligand 8066 (BRD4 [3]; 1:1 with 8066, 10 μM each (BRD-E10: 10 and 100 μM)): causes degradation of BRD4; also recorded: Degradation is noted
BRD4 degradation, BRD ligand alone (BRD4 [3]; BRD monomer alone): no change in expression

COc1ccc2c(c1)C(c1ccc(Cl)cc1)=N[C@@H](CC(=O)NCCCCCNC(=O)c1cccc(O)c1O)c1nnc(C)n1-2 [BRD-N8, N-(5-(2-((4S)-6-(4-chlorophenyl)-8-methoxy-1-methyl-4H-benzo[f][1,2,4]triazolo[4,3-a][1,4]diazepin-4-yl)acetamido)pentyl)-2,3-dihydroxybenzamide]
Loss of cellular viability / toxicity, co-dosed with CRBN ligand 8049 (MV-4-11 cells; MV-4-11, 24 hours, 1:1 with 8049, 1 nM-100 μM each): concentration-dependent loss in cellular viability; also recorded: increased toxicity

CC(C)C[C@H](NC(=O)[C@H](CCc1ccccc1)NC(=O)CN1CCOCC1)C(=O)N[C@@H](Cc1ccccc1)C(=O)N[C@@H](CC(C)C)C(=O)[C@@]1(C)CO1 [Carfilzomib]
Inhibition of BRD-N25 + 8310 mediated BRD4 degradation by proteasome inhibitor (BRD4 [1]): inhibited by the pre-incubation
Inhibition of BRD-E2 + 8305 mediated BRD4 degradation by proteasome inhibitor (BRD4 [4]): inhibited by the pre-incubation
Inhibition of BRD-E20 + 8305 mediated BRD4 degradation by proteasome inhibitor (BRD4 [4]): inhibited by the pre-incubation

CC(C)C[C@@H](C=O)NC(=O)[C@H](CC(C)C)NC(=O)[C@H](CC(C)C)NC(=O)OCc1ccccc1 [MG-132] (Cbz-Leu-Leu-Leu-aldehyde)
Inhibition of BRD-N25 + 8310 mediated BRD4 degradation by proteasome inhibitor (BRD4 [1]): inhibited by the pre-incubation
Inhibition of BRD-E2 + 8305 mediated BRD4 degradation by proteasome inhibitor (BRD4 [4]): inhibited by the pre-incubation
Inhibition of BRD-E20 + 8305 mediated BRD4 degradation by proteasome inhibitor (BRD4 [4]): inhibited by the pre-incubation

Cc1ncsc1-c1ccc(CNC(=O)[C@@H]2C[C@@H](O)CN2C(=O)[C@@H](NC(=O)C2(C#N)CC2)C(C)(C)C)cc1 [VHL298]
Inhibition of BRD-E50 + 8305 mediated BRD4 degradation by preincubation (BRD4 [4]; MCF7, equimolar final concentrations (10 μM)): attenuates CURE-PRO mediated BRD4 degradation; also recorded: inhibited CURE-PRO mediated degradation; also recorded: inhibits the degradation of BRD4

O=C1CCC(N2C(=O)c3cccc(CNC(=O)c4cccc(B(O)O)c4)c3C2=O)C(=O)N1 (centres unmarked) [compound 8049]
Loss of cellular viability, monomer alone (MV-4-11 cells; MV-4-11, 24 hours, 1 nM-100 μM): little loss of viability was observed

Cc1ncsc1-c1ccc(CNC(=O)[C@@H]2C[C@@H](O)CN2C(=O)[C@@H](NC(=O)c2cccc(O)c2O)C(C)(C)C)cc1 [compound 8305, (2S,4R)-1-((S)-2-(2,3-dihydroxybenzamido)-3,3-dimethylbutanoyl)-4-hydroxy-N-(4-(4-methylthiazol-5-yl)benzyl)pyrrolidine-2-carboxamide]
BRD4 degradation, monomer alone (WES) (BRD4 [4]; MCF7, 10 μM): no degradation of BRD4
